The subject of one test is BPEC cells. Nature of the test: In vitro growth inhibition of BPEC cells by estrogen antagonist. The settings on record: data not shown. The format is cell-based, human. An excerpt:
(§1) Expression of CK18 and BER-Ep4 both confirm the adenocarcinoma features and exclude a squamous tumor. E-cadherin excludes a mesenchymal tumor. BPLER xenografts express progesterone receptor, which is consistent with the notion that BPLER xenografts are hormone-responsive. This was confirmed by experiments in which estrogen-progesterone treatment of mice increased subject tumor size approximately two-fold compared to untreated mice. […] Similar tumor xenografts from cells cultured in the MEGM media was negative for progesterone receptor expression and the in vitro growth inhibition of the cells with ICI 182,780 was less than 20% (data not shown).

For a further test, the system named is BPE cells. As to the kind of experiment: In vitro growth inhibition of BPE cells by estrogen antagonist. In kind it is cell-based, human. The settings on record: data not shown.
From the text: as §1

The test system of a further test is BPLE cells. As to the kind of experiment: In vitro growth inhibition of BPLE cells by estrogen antagonist. In kind it is cell-based, human. The settings on record: data not shown.
From the text: as §1

The test system of test [1] is cells cultured in the MEGM media. As to the kind of experiment: In vitro growth inhibition of cells cultured in the MEGM media by estrogen antagonist. The settings on record: data not shown. In kind it is cell-based, human.
From the text: as §1

The next test has as its system BPLER xenografts. As to the kind of experiment: Hormone response of BPLER xenograft tumors in mice. In kind it is in vivo. The settings on record: estrogen treated animals vs control animals. An excerpt:
In one respect, the histology of tumors arising from BPLER is very similar, if not identical to human ductal breast carcinoma. There is prominent luminal marker CK18 expression in BPLER cells and tumors. There is also prominent expression of E-cadherin, a marker indicating polarization of cells. Morphology wise, BPLER xenografts form glandular structures similar to those seen in human tumors. BPLER xenografts into mammary fat pads are invasive into adjacent skeletal muscle, and cause a desmoplastic reaction. BPLER xenografts also express progesterone receptors based on immunohistological staining of xenograft tumor samples. In addition, BPLER tumor sizes respond to estrogen treatment, in that xenograft tumors weighed about 70-100% more in estrogen treated animals than in control animals. BPLER tumors spread within the breast tissue of mice, and the multifocal growth is consistent with lymphovascular invasion and spread of tumors.
Subcutaneous tumorigenicity was tested in 6-8 week old immunocompromised athymic nude mice by injecting about 1×10^6 cells resuspended in 100 μl of 50% matrigel (EHSS). Nude mice were irradiated with 400 rad 12 hr prior to injections. Orthotopic tumorigenicity was tested by injecting about 1×10^6 cells into the mammary fat pad of Nod/Skid mice. All mice were sacrificed on day 70. […]

As to `C[C@]12CC[C@@H]3c4ccc(O)cc4C[C@@H](CCCCCCCCC[S+]([O-])CCCC(F)(F)C(F)(F)F)[C@H]3[C@@H]1CC[C@@H]2O` (some centres unmarked) [ICI 182,780], the growth inhibition in the test on BPEC cells, with BPE cells and in the test with BPLE cells was over 80% each time. Moreover, the “in vitro growth inhibition” value in test [1] was “less than 20%”.

For estrogen, the “xenograft tumor weight increase in treated versus control animals” value with BPLER xenografts is 70-100%.

The values are drawn from US8936939B2, “Hormone responsive tissue culture system and uses thereof” (Whitehead Institute for Biomedical Research, priority 2004, dated 2015).
